Results as given in EPA's ToxRefDB 2.

Columns and labels:
rat [1] = conditions: Sub-acute repeat dose toxicity; sprague dawley; Oral; Gavage/Intubation; dose end: 28 day; group: systemic; systemic / in life observation / body weight / body weight gain + systemic / in life observation / clinical signs / alopecia + systemic / in…
rat [2] = conditions: Prenatal developmental toxicity study, sprague dawley, Oral, Gavage/Intubation, dose end: 17 GD
rabbit [3] = conditions: Prenatal developmental toxicity study, himalayan, Oral, Gavage/Intubation, dose end: 19 GD
dog [4] = conditions: Chronic toxicity, beagle, Oral, Gavage/Intubation, dose end: 1 year, group: systemic
dog [5] = conditions: Sub-acute repeat dose toxicity, beagle, Oral, Capsule, dose end: 4 week, group: systemic
rat [6] = conditions: Fertility (Segment I); sprague dawley; Oral; Gavage/Intubation; dose end: 7 GD; group: parental; systemic / in life observation / body weight / body weight gain + systemic / in life observation / clinical signs / motor activity + …
rat [7] = conditions: Chronic toxicity, sprague dawley, Oral, Gavage/Intubation, dose end: 6 month, group: systemic
rat [8] = conditions: Prenatal developmental toxicity study, sprague dawley, Oral, Gavage/Intubation, dose end: 17 GD; remark: listed apart in the source
rabbit [9] = conditions: Prenatal developmental toxicity study, himalayan, Oral, Gavage/Intubation, dose end: 19 GD; remark: listed apart in the source
dog [10] = conditions: Chronic toxicity, beagle, Oral, Gavage/Intubation, dose end: 6 month, group: systemic
[11] = group: developmental, systemic / in life observation / body weight / fetal weight
[12] = group: maternal, reproductive / reproductive performance / postimplantation loss / postimplantation loss + reproductive / reproductive performance / …
[13] = group: maternal, systemic / in life observation / body weight / body weight + systemic / in life observation / body weight / body weight gain + systemic / in…
[14] = systemic / in life observation / body weight / body weight gain + systemic / pathology microscopic / eye / opacity
[15] = systemic / in life observation / clinical signs / convulsions + systemic / in life observation / clinical signs / general pallor + systemic…
[16] = systemic / in life observation / body weight / body weight gain + systemic / in life observation / food consumption / food consumption + …
[17] = systemic / pathology microscopic / larynx / inflammation
[18] = systemic / in life observation / clinical signs / convulsions + systemic / in life observation / mortality / mortality + systemic / …
[19] = systemic / pathology microscopic / adrenal gland / dilatation + systemic / pathology microscopic / thyroid gland / hyperplasia + systemic / …
[20] = group: developmental, developmental / developmental malformation / bone / [other] + developmental / developmental malformation / bone / absent + developmental / …
[21] = group: maternal, systemic / in life observation / body weight / body weight gain + systemic / in life observation / food consumption / food consumption + …
[22] = group: maternal, systemic / in life observation / food consumption / food consumption
[23] = group: maternal, systemic / in life observation / food consumption / food consumption + systemic / in life observation / body weight / body weight + systemic…
[24] = systemic / in life observation / body weight / body weight gain + systemic / in life observation / clinical signs / vomitting
[25] = systemic / in life observation / body weight / body weight gain + systemic / in life observation / clinical signs / vomitting + systemic / …

**Q.** Which LEL (rat [1]) does the source give for `O=C(Oc1ccc(Br)cc1)N1CCN2CCC1CC2` here?
**A.** The LEL was 5 mg/kg/day.

**Q.** And the LOAEL (rat [1])?
**A.** Its LOAEL is 25 mg/kg/day.

**Q.** And the NEL (rat [1])?
**A.** Its NEL is under 5 mg/kg/day.

**Q.** And the NOAEL (rat [1])?
**A.** Its NOAEL is 5 mg/kg/day.

**Q.** What about the LEL (rat [2]; [11]) of the same compound?
**A.** The LEL was 75 mg/kg/day.

**Q.** And the LOAEL (rat [2]; [11])?
**A.** The LOAEL was over 75 mg/kg/day.

**Q.** And the NEL (rat [2]; [11])?
**A.** The NEL was 25 mg/kg/day.

**Q.** What about the NOAEL (rat [2]; [11]) of the same compound?
**A.** The NOAEL was at least 75 mg/kg/day.

**Q.** And the LOAEL (rat [2]; [12])?
**A.** Its LOAEL is over 75 mg/kg/day.

**Q.** And the NEL (rat [2]; [12])?
**A.** The NEL was 5 mg/kg/day.

**Q.** What about the NOAEL (rat [2]; [12]) of the same compound?
**A.** Its NOAEL is at least 75 mg/kg/day.

**Q.** And the LEL (rat [2]; group: maternal, reproductive / reproductive performance / preimplantation loss / preimplantation loss + systemic / in life observation / body weight / body …)?
**A.** Its LEL is 25 mg/kg/day.

**Q.** And the LEL (rabbit [3]; [11])?
**A.** Its LEL is 30 mg/kg/day.

**Q.** And the LOAEL (rabbit [3]; [11])?
**A.** Its LOAEL is over 30 mg/kg/day.

**Q.** What about the NEL (rabbit [3]; [11]) of the same compound?
**A.** The NEL was 10 mg/kg/day.

**Q.** What about the NOAEL (rabbit [3]; [11]) of the same compound?
**A.** The NOAEL was at least 30 mg/kg/day.

**Q.** And the LEL (rabbit [3]; [13])?
**A.** Its LEL is 10 mg/kg/day.

**Q.** What about the LOAEL (rabbit [3]; [13]) of the same compound?
**A.** Its LOAEL is over 30 mg/kg/day.

**Q.** What about the NEL (rabbit [3]; [13]) of the same compound?
**A.** The NEL was 3 mg/kg/day.

**Q.** And the NOAEL (rabbit [3]; [13])?
**A.** The NOAEL was at least 30 mg/kg/day.

**Q.** What about the LEL (dog [4]; [14]) of the same compound?
**A.** The LEL was 5 mg/kg/day.

**Q.** And the NEL (dog [4]; [14])?
**A.** The NEL was under 5 mg/kg/day.

**Q.** And the LOAEL (dog [4]; [15])?
**A.** The LOAEL was over 12.5 mg/kg/day.

**Q.** What about the NOAEL (dog [4]; [15]) of the same compound?
**A.** Its NOAEL is at least 12.5 mg/kg/day.

**Q.** And the LOAEL (dog [5]; [16])?
**A.** Its LOAEL is over 30 mg/kg/day.

**Q.** What about the NOAEL (dog [5]; [16]) of the same compound?
**A.** The NOAEL was at least 30 mg/kg/day.

**Q.** What about the LEL (dog [5]; [17]) of the same compound?
**A.** Its LEL is 3 mg/kg/day.

**Q.** What about the NEL (dog [5]; [17]) of the same compound?
**A.** Its NEL is under 3 mg/kg/day.

**Q.** What about the LEL (rat [6]) of the same compound?
**A.** Its LEL is 50 mg/kg/day.

**Q.** What about the LOAEL (rat [6]) of the same compound?
**A.** The LOAEL was 50 mg/kg/day.

**Q.** And the NEL (rat [6])?
**A.** Its NEL is 20 mg/kg/day.

**Q.** What about the NOAEL (rat [6]) of the same compound?
**A.** Its NOAEL is 20 mg/kg/day.

**Q.** What about the LOAEL (rat [7]; [18]) of the same compound?
**A.** The LOAEL was 75 mg/kg/day.

**Q.** And the NOAEL (rat [7]; [18])?
**A.** The NOAEL was 25 mg/kg/day.

**Q.** And the LEL (rat [7]; [19])?
**A.** Its LEL is 5 mg/kg/day.

**Q.** And the NEL (rat [7]; [19])?
**A.** The NEL was under 5 mg/kg/day.

**Q.** And the LOAEL (rat [8]; [20])?
**A.** The LOAEL was 50 mg/kg/day.

**Q.** And the NEL (rat [8]; [20])?
**A.** The NEL was 5 mg/kg/day.

**Q.** What about the NOAEL (rat [8]; [20]) of the same compound?
**A.** The NOAEL was 20 mg/kg/day.

**Q.** And the LEL (rat [8]; group: developmental, developmental / developmental malformation / bone / incomplete ossification)?
**A.** Its LEL is 20 mg/kg/day.

**Q.** What about the LOAEL (rat [8]; [21]) of the same compound?
**A.** Its LOAEL is 50 mg/kg/day.

**Q.** And the NEL (rat [8]; [21])?
**A.** The NEL was 5 mg/kg/day.

**Q.** What about the NOAEL (rat [8]; [21]) of the same compound?
**A.** The NOAEL was 20 mg/kg/day.

**Q.** And the LEL (rat [8]; group: maternal, systemic / organ weight / uterus / nos)?
**A.** The LEL was 20 mg/kg/day.

**Q.** What about the LEL (rabbit [9]; [11]) of the same compound?
**A.** The LEL was 24 mg/kg/day.

**Q.** And the LOAEL (rabbit [9]; [11])?
**A.** Its LOAEL is over 24 mg/kg/day.

**Q.** And the NEL (rabbit [9]; [11])?
**A.** The NEL was 8 mg/kg/day.

**Q.** And the NOAEL (rabbit [9]; [11])?
**A.** The NOAEL was at least 24 mg/kg/day.

**Q.** What about the LEL (rabbit [9]; [22]) of the same compound?
**A.** Its LEL is 3 mg/kg/day.

**Q.** And the NEL (rabbit [9]; [22])?
**A.** The NEL was under 3 mg/kg/day.

**Q.** And the LOAEL (rabbit [9]; [23])?
**A.** Its LOAEL is over 24 mg/kg/day.

**Q.** What about the NOAEL (rabbit [9]; [23]) of the same compound?
**A.** Its NOAEL is at least 24 mg/kg/day.

**Q.** And the LEL (dog [10]; [24])?
**A.** The LEL was 1.5 mg/kg/day.

**Q.** And the NEL (dog [10]; [24])?
**A.** Its NEL is under 1.5 mg/kg/day.

**Q.** What about the LOAEL (dog [10]; [25]) of the same compound?
**A.** Its LOAEL is over 15 mg/kg/day.

**Q.** And the NOAEL (dog [10]; [25])?
**A.** Its NOAEL is at least 15 mg/kg/day.
